Measured values published in ChEMBL document CHEMBL1201862, “PubChem BioAssay data set” (2004).
Active and inactive are the calls of the source.

Assays:
[1] = molecular target: DNA dC->dU-editing enzyme APOBEC-3A (Homo sapiens, UniProt P31941); test: SAR analysis of small molecule inhibitors of APOBEC3A DNA Deaminase via a fluorescence-based single-stranded DNA deaminase assay.; assay type: functional; settings: read-out: IC50_Mean
Cytochrome P450 2C19 = Cytochrome P450 2C19 (Homo sapiens, UniProt P33261); test: Cytochrome panel assay with activity outcomes. Panel member name: p450-cyp2c19 Compounds with AC50 equal or less than 10 uM are considered active; assay type: functional; settings: read-out: AC50
Cytochrome P450 2C9 = Cytochrome P450 2C9 (Homo sapiens, UniProt P11712)
Cytochrome P450 2D6 = Cytochrome P450 2D6 (Homo sapiens, UniProt P10635);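 also: CYP2D6 member of a cytochrome P450 panel assay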
[2] = molecular target: DNA dC->dU-editing enzyme APOBEC-3G (Homo sapiens, UniProt Q9HC16); test: APOBEC3G deaminase inhibitors, SAR follow-up, biochemical, fluorescence, single-stranded DNA substrate (AID 602136); assay type: functional; settings: read-out: IC50_Mean
Insulin-degrading enzyme [3] = molecular target: T1, Insulin-degrading enzyme (Homo sapiens, UniProt P14735); test: activators of endogenous IDE in HEK cells, dose response, cell-based, fluorescence polarization (AID 588439); assay type: functional
T1 sequence (P14735 whole entry): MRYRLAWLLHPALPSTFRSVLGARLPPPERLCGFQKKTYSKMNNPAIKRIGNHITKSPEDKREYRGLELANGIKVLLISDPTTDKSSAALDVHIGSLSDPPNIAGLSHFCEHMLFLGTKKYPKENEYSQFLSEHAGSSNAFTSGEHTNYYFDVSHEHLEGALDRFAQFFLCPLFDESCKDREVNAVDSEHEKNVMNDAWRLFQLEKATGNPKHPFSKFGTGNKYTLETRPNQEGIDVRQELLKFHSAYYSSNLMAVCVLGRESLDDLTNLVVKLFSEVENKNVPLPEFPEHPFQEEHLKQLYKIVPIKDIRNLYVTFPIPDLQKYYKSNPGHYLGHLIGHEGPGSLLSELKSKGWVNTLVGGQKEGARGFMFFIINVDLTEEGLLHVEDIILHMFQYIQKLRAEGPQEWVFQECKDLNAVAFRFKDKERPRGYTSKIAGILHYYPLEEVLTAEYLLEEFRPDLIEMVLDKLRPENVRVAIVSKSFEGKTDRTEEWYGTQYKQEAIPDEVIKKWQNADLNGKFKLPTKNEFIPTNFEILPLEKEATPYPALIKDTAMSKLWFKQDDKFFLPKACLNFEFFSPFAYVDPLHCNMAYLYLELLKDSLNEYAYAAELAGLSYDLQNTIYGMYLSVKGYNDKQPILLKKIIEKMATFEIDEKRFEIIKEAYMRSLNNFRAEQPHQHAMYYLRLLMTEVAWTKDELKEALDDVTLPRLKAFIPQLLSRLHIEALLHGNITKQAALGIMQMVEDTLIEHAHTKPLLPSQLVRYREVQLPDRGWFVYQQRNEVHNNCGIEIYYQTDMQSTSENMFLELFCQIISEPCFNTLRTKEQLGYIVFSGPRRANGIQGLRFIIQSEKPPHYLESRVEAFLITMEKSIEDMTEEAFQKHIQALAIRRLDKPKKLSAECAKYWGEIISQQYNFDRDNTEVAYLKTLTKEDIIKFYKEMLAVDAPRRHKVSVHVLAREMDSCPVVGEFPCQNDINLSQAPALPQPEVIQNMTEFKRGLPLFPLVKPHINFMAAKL

Insulin-degrading enzyme [4] = molecular target: T1, Insulin-degrading enzyme; test: activators of recombinant IDE enzyme, dose response, counter-screen for IDE activator project, biochemical, fluorescence polarization (AID 588681)
HEK293 [5] = test: HEK cell cytotoxicity by LDH release, dose response, cytotoxicity control for IDE activator project, fluorescence, HEK cells (AID 588440); assay type: functional, cell-based; settings: Homo sapiens;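 also: cytotoxicity by LDH release measuring loss of membrane integrity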
HEK293 [6] = test: optical interference in Abeta FP readout, dose response, artefact control for IDE activator project, biochemical, fluorescence polarization (AID 588442); assay type: functional, cell-based; settings: Homo sapiens
Caspase-3 [7] = molecular target: T2, Caspase-3 (Homo sapiens, UniProt P42574); test: caspase-3 inhibitors as off-family protease, SAR follow-up, selectivity assay for SENP protease inhibitor project, biochemical, luminescence, set 2 (AID 588599); assay type: functional
T2 sequence (P42574 whole entry): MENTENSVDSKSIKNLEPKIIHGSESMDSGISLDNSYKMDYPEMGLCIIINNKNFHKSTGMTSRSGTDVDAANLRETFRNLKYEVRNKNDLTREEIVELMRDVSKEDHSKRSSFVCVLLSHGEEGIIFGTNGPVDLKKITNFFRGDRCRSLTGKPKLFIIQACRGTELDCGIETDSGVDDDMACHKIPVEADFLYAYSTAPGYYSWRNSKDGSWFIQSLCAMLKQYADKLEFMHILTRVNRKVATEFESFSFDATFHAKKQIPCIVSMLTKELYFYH

[8] = molecular target: T3, Sentrin-specific protease 8 (Homo sapiens, UniProt Q96LD8); test: SENP8 protease inhibitors, SAR follow-up, biochemical, luminescence, set 2 (AID 588601); assay type: functional
T3 sequence (Q96LD8 whole entry): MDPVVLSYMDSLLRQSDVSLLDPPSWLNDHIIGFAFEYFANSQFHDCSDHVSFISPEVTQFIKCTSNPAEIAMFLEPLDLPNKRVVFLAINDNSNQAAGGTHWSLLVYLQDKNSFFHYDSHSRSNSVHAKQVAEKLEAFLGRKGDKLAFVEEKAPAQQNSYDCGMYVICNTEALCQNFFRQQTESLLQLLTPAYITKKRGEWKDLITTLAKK

[9] = molecular target: T4, Sentrin-specific protease 6 (Homo sapiens, UniProt Q9GZR1); test: SENP6 protease inhibitors, SAR follow-up, biochemical, luminescence, set 2 (AID 588598); assay type: functional
T4 sequence (Q9GZR1 whole entry): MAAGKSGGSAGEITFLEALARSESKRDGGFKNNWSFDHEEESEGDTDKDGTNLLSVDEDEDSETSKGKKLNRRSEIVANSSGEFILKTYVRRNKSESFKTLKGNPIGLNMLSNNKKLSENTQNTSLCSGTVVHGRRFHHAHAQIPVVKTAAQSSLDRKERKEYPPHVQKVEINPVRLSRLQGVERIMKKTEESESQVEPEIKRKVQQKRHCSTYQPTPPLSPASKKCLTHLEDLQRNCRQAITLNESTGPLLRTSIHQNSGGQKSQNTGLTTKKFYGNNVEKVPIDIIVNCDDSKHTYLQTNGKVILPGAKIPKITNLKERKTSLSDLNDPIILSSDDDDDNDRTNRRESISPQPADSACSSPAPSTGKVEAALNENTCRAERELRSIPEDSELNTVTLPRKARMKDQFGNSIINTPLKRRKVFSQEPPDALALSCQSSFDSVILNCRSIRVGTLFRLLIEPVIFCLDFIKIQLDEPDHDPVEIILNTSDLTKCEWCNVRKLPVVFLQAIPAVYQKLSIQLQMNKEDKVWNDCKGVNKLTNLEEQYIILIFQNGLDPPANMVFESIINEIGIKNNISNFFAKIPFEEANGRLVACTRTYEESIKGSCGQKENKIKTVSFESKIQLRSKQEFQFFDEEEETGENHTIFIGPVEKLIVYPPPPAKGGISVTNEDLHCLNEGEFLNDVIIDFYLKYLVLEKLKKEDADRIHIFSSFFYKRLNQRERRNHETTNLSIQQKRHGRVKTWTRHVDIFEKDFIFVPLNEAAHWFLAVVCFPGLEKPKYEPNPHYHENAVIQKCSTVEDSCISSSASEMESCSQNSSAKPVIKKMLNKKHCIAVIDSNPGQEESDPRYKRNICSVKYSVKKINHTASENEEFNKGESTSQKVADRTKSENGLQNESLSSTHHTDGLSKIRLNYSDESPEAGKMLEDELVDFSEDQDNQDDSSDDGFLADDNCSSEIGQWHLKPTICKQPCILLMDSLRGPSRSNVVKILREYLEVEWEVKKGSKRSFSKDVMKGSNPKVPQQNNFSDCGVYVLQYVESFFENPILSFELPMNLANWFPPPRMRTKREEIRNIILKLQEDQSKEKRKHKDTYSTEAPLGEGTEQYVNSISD

[10] = molecular target: T5, Sentrin-specific protease 7 (Homo sapiens, UniProt Q9BQF6); test: SENP7 protease inhibitors, SAR follow-up, biochemical, luminescence, set 2 (AID 588600); assay type: functional
T5 sequence (Q9BQF6 whole entry): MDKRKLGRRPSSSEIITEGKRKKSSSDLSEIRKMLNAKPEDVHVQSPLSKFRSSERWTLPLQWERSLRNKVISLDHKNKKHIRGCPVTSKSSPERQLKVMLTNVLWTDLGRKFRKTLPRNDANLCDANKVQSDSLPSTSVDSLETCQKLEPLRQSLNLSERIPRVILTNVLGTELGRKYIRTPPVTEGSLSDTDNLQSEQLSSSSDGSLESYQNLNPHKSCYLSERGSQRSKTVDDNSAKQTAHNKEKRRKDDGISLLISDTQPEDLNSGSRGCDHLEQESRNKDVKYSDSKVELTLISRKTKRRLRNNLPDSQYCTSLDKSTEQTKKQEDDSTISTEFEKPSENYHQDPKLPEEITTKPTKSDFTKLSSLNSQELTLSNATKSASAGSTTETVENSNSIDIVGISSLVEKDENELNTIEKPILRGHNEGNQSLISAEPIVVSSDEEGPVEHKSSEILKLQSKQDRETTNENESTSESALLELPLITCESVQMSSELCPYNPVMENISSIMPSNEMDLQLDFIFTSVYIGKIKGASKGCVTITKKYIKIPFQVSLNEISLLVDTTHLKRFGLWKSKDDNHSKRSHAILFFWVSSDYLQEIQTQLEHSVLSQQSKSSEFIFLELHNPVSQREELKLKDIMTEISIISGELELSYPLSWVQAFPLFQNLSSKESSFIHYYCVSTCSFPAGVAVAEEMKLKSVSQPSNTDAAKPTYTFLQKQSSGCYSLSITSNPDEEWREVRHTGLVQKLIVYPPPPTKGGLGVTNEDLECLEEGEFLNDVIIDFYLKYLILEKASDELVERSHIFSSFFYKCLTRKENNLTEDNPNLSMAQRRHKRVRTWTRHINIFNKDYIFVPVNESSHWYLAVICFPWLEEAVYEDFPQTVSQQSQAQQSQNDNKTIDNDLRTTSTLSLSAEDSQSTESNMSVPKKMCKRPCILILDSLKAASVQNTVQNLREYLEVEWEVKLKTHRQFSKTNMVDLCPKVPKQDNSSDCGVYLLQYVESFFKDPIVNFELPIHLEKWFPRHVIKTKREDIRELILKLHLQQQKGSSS

Caspase-3 [11] = molecular target: T2, Caspase-3; test: SAR Analysis of small molecule inhibitors of Sentrin-specific proteases (SENPs) using a Caspase-3 Selectivity assay. [Related pubchem assays (depositor defined):AID2540, AID2599, AID434973, AID489001]; assay type: functional
[12] = molecular target: T3, Sentrin-specific protease 8; test: SENP8 protease inhibitors, SAR follow-up, biochemical, luminescence (AID 504501); assay type: functional
[13] = molecular target: T5, Sentrin-specific protease 7; test: SENP7 protease inhibitors, SAR follow-up, biochemical, luminescence (AID 504497); assay type: functional
[14] = molecular target: T4, Sentrin-specific protease 6; test: SAR Analysis of small molecule inhibitors of Sentrin-specific protease 6 (SENP6) using a Luminescent assay. [Related pubchem assays (depositor defined):AID2582, AID2599]; assay type: functional

DNA dC->dU-editing enzyme APOBEC-3A, sequence (P31941 whole entry): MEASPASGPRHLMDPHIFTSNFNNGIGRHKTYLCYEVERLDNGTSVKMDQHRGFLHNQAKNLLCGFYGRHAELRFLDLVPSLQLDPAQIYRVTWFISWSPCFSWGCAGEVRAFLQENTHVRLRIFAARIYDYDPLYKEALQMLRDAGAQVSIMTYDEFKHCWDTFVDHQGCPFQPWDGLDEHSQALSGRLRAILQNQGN
DNA dC->dU-editing enzyme APOBEC-3G, sequence (Q9HC16 whole entry): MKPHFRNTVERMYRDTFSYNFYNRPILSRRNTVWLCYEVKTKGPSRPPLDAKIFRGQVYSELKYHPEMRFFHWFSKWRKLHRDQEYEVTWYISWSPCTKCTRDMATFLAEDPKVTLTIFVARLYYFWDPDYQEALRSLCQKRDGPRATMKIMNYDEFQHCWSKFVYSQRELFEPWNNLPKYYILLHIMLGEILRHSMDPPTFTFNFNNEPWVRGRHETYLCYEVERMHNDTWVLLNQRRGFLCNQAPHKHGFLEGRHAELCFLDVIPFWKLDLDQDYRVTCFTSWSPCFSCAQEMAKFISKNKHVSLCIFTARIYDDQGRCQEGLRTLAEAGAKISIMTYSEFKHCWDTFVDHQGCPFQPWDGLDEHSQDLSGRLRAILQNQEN
Cytochrome P450 2C9, sequence (P11712 whole entry): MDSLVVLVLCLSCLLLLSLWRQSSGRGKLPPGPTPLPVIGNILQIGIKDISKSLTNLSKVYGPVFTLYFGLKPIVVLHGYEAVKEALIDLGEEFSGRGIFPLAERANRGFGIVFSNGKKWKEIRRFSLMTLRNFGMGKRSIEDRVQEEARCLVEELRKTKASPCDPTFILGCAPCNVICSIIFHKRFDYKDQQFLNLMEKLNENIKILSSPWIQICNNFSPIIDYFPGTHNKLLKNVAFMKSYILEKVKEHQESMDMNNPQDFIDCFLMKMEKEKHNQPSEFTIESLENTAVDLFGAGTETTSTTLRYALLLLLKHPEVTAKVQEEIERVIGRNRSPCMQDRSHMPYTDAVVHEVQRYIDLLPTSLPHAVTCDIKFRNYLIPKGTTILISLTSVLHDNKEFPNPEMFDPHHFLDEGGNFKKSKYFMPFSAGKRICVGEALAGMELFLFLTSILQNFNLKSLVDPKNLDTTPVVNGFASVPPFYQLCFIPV
Cytochrome P450 2C19, sequence (P33261 whole entry): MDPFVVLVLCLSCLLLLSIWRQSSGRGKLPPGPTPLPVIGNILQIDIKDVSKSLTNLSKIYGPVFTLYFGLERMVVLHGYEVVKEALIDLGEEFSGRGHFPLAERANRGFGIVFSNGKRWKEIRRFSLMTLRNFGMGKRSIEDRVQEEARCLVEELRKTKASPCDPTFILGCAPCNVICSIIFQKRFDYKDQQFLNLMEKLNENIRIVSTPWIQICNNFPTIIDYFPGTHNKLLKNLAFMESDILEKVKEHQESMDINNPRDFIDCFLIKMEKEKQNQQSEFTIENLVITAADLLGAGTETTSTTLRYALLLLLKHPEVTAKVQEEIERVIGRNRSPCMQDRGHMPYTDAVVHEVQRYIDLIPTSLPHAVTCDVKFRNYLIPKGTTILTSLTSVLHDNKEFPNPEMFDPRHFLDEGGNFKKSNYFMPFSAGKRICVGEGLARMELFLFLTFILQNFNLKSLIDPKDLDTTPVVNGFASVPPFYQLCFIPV
Cytochrome P450 2D6, sequence (P10635 whole entry): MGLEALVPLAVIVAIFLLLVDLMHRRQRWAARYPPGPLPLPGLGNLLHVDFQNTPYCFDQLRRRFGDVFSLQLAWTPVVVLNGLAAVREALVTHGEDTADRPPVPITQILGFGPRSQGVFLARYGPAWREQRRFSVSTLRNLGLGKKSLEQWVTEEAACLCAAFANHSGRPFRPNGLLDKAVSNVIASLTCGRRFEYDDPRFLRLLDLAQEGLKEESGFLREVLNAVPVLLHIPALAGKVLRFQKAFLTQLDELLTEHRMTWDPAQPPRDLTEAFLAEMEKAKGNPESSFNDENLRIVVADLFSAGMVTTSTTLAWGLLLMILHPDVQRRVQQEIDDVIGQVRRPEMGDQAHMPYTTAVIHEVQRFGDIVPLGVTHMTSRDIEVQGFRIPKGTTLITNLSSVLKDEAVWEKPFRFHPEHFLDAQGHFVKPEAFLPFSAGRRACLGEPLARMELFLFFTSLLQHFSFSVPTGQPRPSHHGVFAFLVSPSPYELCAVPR

C=CCSc1nnc(-c2cc3c(C(F)(F)F)nn(C)c3s2)n1C
inconclusive: AC50 (Cytochrome P450 2C19) 3.55 µM | AC50 (Cytochrome P450 2C9) | AC50 (Cytochrome P450 2D6) 17.8 µM
inactive: IC50 [1] > 99 µM | IC50 [2] 70.8 µM

C1CCCCCC(=NNc2nn[nH]n2)CCCCC1
inactive: EC50 (Insulin-degrading enzyme [3]) > 54.7 µM | EC50 (Insulin-degrading enzyme [4]) > 54.7 µM | IC50 (HEK293 [5]) > 89.2 µM | EC50 (HEK293 [6]) > 56 µM

CCN1CCN(CCCNC(=O)C(=O)c2c[nH]c3ccccc23)CC1
inactive: IC50 (Caspase-3 [7]) > 99 µM | IC50 [8] > 99 µM | IC50 [9] > 99 µM | IC50 [10] > 99 µM

O=C(Nc1ccc(-c2nc3ccccc3o2)cc1)c1ccc2c(c1)OCO2
active: IC50 (HEK293 [5]) > 9.91 µM
inactive: EC50 (Insulin-degrading enzyme [3]) > 54.7 µM | EC50 (Insulin-degrading enzyme [4]) > 54.7 µM | EC50 (HEK293 [6]) > 55.9 µM

Cn1cccc1C(=O)Nc1nc2ccc(Cl)cc2s1
active: IC50 (Caspase-3 [11]) 420 nM | IC50 (Caspase-3 [7]) 0.465 µM | IC50 [12] 520 nM | IC50 [8] 0.619 µM | IC50 [9] 0.652 µM | IC50 [10] 0.558 µM | IC50 [13] 490 nM | IC50 [14] 540 nM

Cc1cc(C(=O)Cn2ccccc2=O)c(C)n1Cc1ccccc1
inactive: IC50 [1] > 99 µM | IC50 [2] > 99 µM
